Test systems include RXF 393 renal; HOP-92 NSCLC; COLO 205 colon; NCI-H23 lung; U251 CNS; SK-MEL-28 melanoma; EKVX NSCLC; CAKI-1 renal.
Experiment in all cases: NCI tumour cell line growth inhibition, 48 h

GI50 and TGI data for nine molecules are collected here from PubChem BioAssay (NCI).

SMILES strings stand for the structures. “And” between values parts separate entries of the source, which are not always exact repeats. Equal entries are not always repeated.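 Compound exposure: 48 hours, 5 concentrations, 96-well plates. GI50 = concentration required for 50% inhibition of growth. TGI: total growth inhibition.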 Some results are limits rather than exact numbers.

Regarding `COc1cc(C2c3cc4c(cc3C(OC(=O)C[n+]3ccccc3)C3COC(=O)C23)OCO4)cc(OC)c1OC` (stereo not drawn), the GI50 with RXF 393 renal was below 19.1 nM; with HOP-92 NSCLC, below 13 nM; in the assay with COLO 205 colon it was below 13.7 nM; in the assay on NCI-H23 lung, below 21.7 nM; in the assay on U251 CNS, below 21 nM; with SK-MEL-28 melanoma, 53000 nM. Moreover, the GI50 in the assay on EKVX NSCLC was 436 nM; in the assay with CAKI-1 renal, below 18.4 nM. The TGI in the assay on RXF 393 renal is above 100000 nM; in the assay on HOP-92 NSCLC it was 2740 nM; in the assay with COLO 205 colon, below 20.3 nM; in the assay with NCI-H23 lung, above 100000 nM; in the assay with U251 CNS, above 100000 nM; with SK-MEL-28 melanoma it was above 100000 nM. For the same molecule, the TGI with EKVX NSCLC and in the assay with CAKI-1 renal was above 100000 nM throughout.
Consider `CN1CCN(Cc2ccc(NC(=O)c3cncc(C#Cc4cnc(N)c5cccnc45)c3)cc2C(F)(F)F)CC1`, for which the GI50 in the assay on RXF 393 renal was 255 nM; in the assay with HOP-92 NSCLC it was 148 nM; in the assay with COLO 205 colon it was 95.6 nM; with NCI-H23 lung, 496 nM; with U251 CNS, 233 nM; in the assay with SK-MEL-28 melanoma it was 176 nM. The GI50 in the assay on EKVX NSCLC is 1360 nM. Moreover, the TGI was 2510 nM with RXF 393 renal; 1160 nM in the assay with HOP-92 NSCLC; 1120 nM in the assay on COLO 205 colon; above 50000 nM in the assay on NCI-H23 lung; above 31500 nM with U251 CNS; 1850 nM in the assay on SK-MEL-28 melanoma. For the same molecule, the TGI in the assay with EKVX NSCLC and in the assay with CAKI-1 renal was above 50000 nM in each case.
For `c1ccc(CNCCN(CCNCc2ccccn2)Cc2ccc3ccccc3c2)nc1`, the GI50 in the assay on RXF 393 renal was 2030 nM; with HOP-92 NSCLC, 1790 nM; in the assay on COLO 205 colon it was 2270 nM; in the assay on NCI-H23 lung, 2260 nM; in the assay with U251 CNS, 2470 nM; in the assay with SK-MEL-28 melanoma, 1750 nM. In addition, the GI50 with EKVX NSCLC is 1710 nM. The TGI with RXF 393 renal turned out to be 5170 nM; with HOP-92 NSCLC it was 4640 nM; in the assay on COLO 205 colon, 4570 nM; in the assay with NCI-H23 lung it was 6190 nM; in the assay with U251 CNS it was 7390 nM; in the assay with SK-MEL-28 melanoma, 3360 nM. The molecule further returned a TGI in the assay with EKVX NSCLC of 7580 nM.
As for `CC(=O)[CH-]C(=O)c1ccccc1.CC(=O)[CH-]C(=O)c1ccccc1.O=S(=O)([O-])c1cc([O-])c2c([O-])cc(S(=O)(=O)[O-])cc2c1.[Na+].[Zr+4]`, the GI50 in the assay with U251 CNS was above 100000 nM; with SK-MEL-28 melanoma, above 100000 nM; in the assay with EKVX NSCLC it was above 100000 nM; in the assay on CAKI-1 renal, 60000 nM. Besides, the TGI in the assay with U251 CNS, with SK-MEL-28 melanoma, in the assay on EKVX NSCLC and in the assay with CAKI-1 renal was above 100000 nM each time.
For `Oc1c(Cl)cc(Cl)c2ccc(Cn3cc(-c4ccc(C(F)(F)F)cc4)nn3)nc12`, the GI50 was 402 nM in the assay with RXF 393 renal; 1900 nM in the assay with HOP-92 NSCLC; 1390 nM in the assay on COLO 205 colon; 2040 nM in the assay on NCI-H23 lung; 4430 nM in the assay on U251 CNS; 1780 nM in the assay on SK-MEL-28 melanoma. The GI50 with EKVX NSCLC is 5800 nM; in the assay on CAKI-1 renal, 1250 nM. The TGI in the assay on RXF 393 renal came to 1790 nM; in the assay on HOP-92 NSCLC it was 5820 nM; in the assay on COLO 205 colon it was 3140 nM; in the assay with NCI-H23 lung, 4760 nM; in the assay with U251 CNS it was 17200 nM; in the assay with SK-MEL-28 melanoma it was 3760 nM. Further, the TGI in the assay with EKVX NSCLC turned out to be 19500 nM; in the assay with CAKI-1 renal, 2970 nM.
Consider `Clc1ccccc1-c1nnc2c(Cc3ccccc3)nc3ccccc3n12`, for which the GI50 was 3290 nM with RXF 393 renal; 3450 nM in the assay on HOP-92 NSCLC; above 29600 nM in the assay on COLO 205 colon; above 100000 nM with NCI-H23 lung; 4210 nM in the assay on U251 CNS; above 48800 nM with SK-MEL-28 melanoma. Besides, the values for the GI50 in the assay on EKVX NSCLC and in the assay on CAKI-1 renal were 12700 nM and 9590 nM, respectively. Moreover, the TGI in the assay on RXF 393 renal is above 100000 nM; in the assay with HOP-92 NSCLC, 41800 nM; with COLO 205 colon, above 100000 nM; in the assay on NCI-H23 lung, above 100000 nM; in the assay with U251 CNS, above 100000 nM; with SK-MEL-28 melanoma, above 100000 nM. For the same molecule, the TGI in the assay on EKVX NSCLC and with CAKI-1 renal was above 100000 nM throughout.
As to `CC(=O)c1cc(C(=O)c2ccc3c(c2)Sc2ccccc2N3)n2ccccc12`, the GI50 with RXF 393 renal was 3.32 nM; with COLO 205 colon, 3.27 nM and 3.32 nM; in the assay on NCI-H23 lung, 7.73 nM and 3.32 nM; in the assay on U251 CNS it was 4.92 nM and 3.32 nM; in the assay on EKVX NSCLC, 29.1 nM and 4.98 nM; in the assay with CAKI-1 renal, 3.68 nM and 3.69 nM. Besides, the TGI is 20500 nM in the assay on RXF 393 renal; 14500 nM in the assay on HOP-92 NSCLC; 21.3 nM and 9.93 nM in the assay on COLO 205 colon; above 33200 nM in the assay on NCI-H23 lung; 16400 nM in the assay with U251 CNS; above 33200 nM in the assay with SK-MEL-28 melanoma. Besides, the TGI in the assay with EKVX NSCLC and with CAKI-1 renal was above 33200 nM each time.
For `CO[C@H]1CC(O[C@@H]2/C(C)=C/C[C@@H]3C[C@@H](C[C@]4(CC[C@H](C)[C@@H](C5CCCCC5)O4)O3)OC(=O)[C@@H]3C=C(C)/C(=N/O)[C@H]4OC/C(=C\C=C\[C@@H]2C)[C@]43O)O[C@@H](C)C1O` (stereo partly drawn), the GI50 was 728 nM with RXF 393 renal; 648 nM in the assay with HOP-92 NSCLC; 930 nM in the assay with COLO 205 colon; 1010 nM in the assay with NCI-H23 lung; 759 nM in the assay on U251 CNS; 952 nM in the assay with SK-MEL-28 melanoma. Further, the GI50 was 951 nM in the assay on EKVX NSCLC and 1140 nM in the assay with CAKI-1 renal. The TGI in the assay with RXF 393 renal came to 1400 nM; in the assay with HOP-92 NSCLC it was 1570 nM; in the assay with COLO 205 colon, 1800 nM; with NCI-H23 lung it was 2650 nM; in the assay on U251 CNS, 1470 nM; with SK-MEL-28 melanoma it was 1970 nM. The TGI with EKVX NSCLC amounted to 2640 nM; in the assay with CAKI-1 renal, 3320 nM.
With `O=C1C=CC(=O)c2c(O)c3c(c(O)c21)C[C@H](O)[C@H](O)[C@@H]3O`, the TGI was 3430 nM in the assay with RXF 393 renal; 2870 nM with HOP-92 NSCLC; 1120 nM in the assay with COLO 205 colon; 4670 nM with NCI-H23 lung; 16300 nM in the assay with U251 CNS; 5380 nM in the assay on SK-MEL-28 melanoma. The TGI came out at 6150 nM with EKVX NSCLC and 4380 nM in the assay with CAKI-1 renal.
